Broadly, the IC50 is the midpoint of a concentration-inhibition curve. As a reminder, the pIC50 is the negative decadic logarithm of the IC50, by convention in mol/L.

pIC50: −log10 of the molar value. Calls of active or inactive are those of the source.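 Rule for the calls: active = IC50 at or below 10 micromolar; inactive = IC50 above 10 micromolar.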

Chain of 5-hydroxytryptamine receptor 1A (Homo sapiens) (P08908 whole entry, looked up): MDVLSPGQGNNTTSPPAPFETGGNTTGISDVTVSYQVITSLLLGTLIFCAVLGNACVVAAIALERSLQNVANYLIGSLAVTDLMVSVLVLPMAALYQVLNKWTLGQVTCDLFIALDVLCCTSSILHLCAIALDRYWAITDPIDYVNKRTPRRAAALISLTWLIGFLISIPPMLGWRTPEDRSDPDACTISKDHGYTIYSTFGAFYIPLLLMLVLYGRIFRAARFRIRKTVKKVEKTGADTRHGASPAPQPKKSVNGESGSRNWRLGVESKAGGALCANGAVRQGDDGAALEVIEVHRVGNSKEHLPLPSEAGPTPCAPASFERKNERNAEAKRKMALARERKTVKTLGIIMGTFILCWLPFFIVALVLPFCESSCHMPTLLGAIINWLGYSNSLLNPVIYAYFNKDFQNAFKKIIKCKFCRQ

The test concerns the target 5-hydroxytryptamine receptor 1A (Homo sapiens) (UniProt P08908). The experiment in a line: IC50 of serotonin HTR1A blockade – cell-based, CHO, Ga15 NFAT-bla reporter, dose response (AID 755). The conditions noted are these: CHO 5-HT1A Ga15 NFAT-BLA reporter, FRET antagonist.
`COc1cc2c(cc1OC)C1=C(C#N)CC/C(=N\S(=O)(=O)c3ccccc3)N1CC2`: the IC50 was > 40 µM (inactive).

In the case of `CSc1ccccc1N=CC1=C(O)CC(C)(C)CC1=O`, the pIC50 is 5.73.

For `O=C1C2C3C=CC(CO)(O3)C2C(=O)N1c1ccc(-c2ccccc2)cc1` (stereo not given), the IC50 result is “inactive”.

On to `COc1ccc(N2C(=O)CC(NCc3ccncc3)C2=O)cc1` (stereo not given), for which the IC50 was > 40 µM (inactive).

As for `CC(=O)Oc1ccc(N2C(=O)C3C(C2=O)C2(C)C=CC3(C)O2)cc1` (stereo not given), the pIC50 is 5.13.

Source of the values: PubChem BioAssay AID755 (The Scripps Research Institute Molecular Screening Center, 2007).
